In article PMC7381750, “JP1 suppresses proliferation and metastasis of melanoma through MEK1/2 mediated NEDD4L-SP1-Integrin αvβ3 signaling” (Theranostics, 2020):
Several values for one entry are separate records, joined by “and”; a condition that tells them apart may be missing. Identical values can stand only once. Entries after “also recorded” stand apart in the source; their conditions may differ. Non-standard residues stand in square brackets, D forms with d. Residues, ends and D or L forms follow the SMILES beside them. pS = N[C@@H](COP(=O)(O)O)C(=O)O

Columns and labels:
B16F10 cell = assay: B16F10 melanoma-bearing model, JP1 and DTIC alone or in combination; assay type: in vivo, mouse; conditions: 50 mg/kg JP1 combined with 40 mg/kg DTIC
Procedure: (A-C) (A) Schematic representation of the B16F10 and MEWO cells melanoma-bearing model for JP1 treatment (n = 6 per group). JP1 and its control agents were administered by intraperitoneal injection. […] (D-G) (D) Schematic representation of the B16F10 cell melanoma passive metastasis model for JP1 treatment. JP1 and its control agents were administered by intraperitoneal injection. […] (F) The representative melanoma lung metastatic images by H&E-staining (scale bars, 1000 μm). […] (J-L) (J) Schematic representation of the B16F10 cell melanoma-bearing model (n= 6 per group). Both JP1 and DTIC alone or in combination treatments and relative control was administered by intraperitoneal injection in mice.
The chemotherapeutic agent dacarbazine (DTIC) is currently as the first line drug used to treat metastatic melanoma in clinic, and was reported to cause painful symptoms and acquired resistance, compromising patient quality of life. To determine the possibility as a combination therapy between DTIC and JP1, we completed a joint treatment of DTIC and JP1 for melanoma tumor-bearing model (Figure 2J).

[1] = Cynomolgus monkey toxicity test: blood routine examination; assay type: in vivo
Procedure: (§1) The test was completed by Suzhou Xishan Zhongke Drugs Research and Development Co., Ltd. (Xishan, Suzhou, China). The study proposal was approved by the Institute Animal Care and Use Committee (IACUC, ID19012912). Cynomolgus monkeys (3-4 years old) were randomly divided into three groups (n = 4 per group, half male and female); and the monkeys were treated with solvent control (Mannitol in saline, 75 mg/kg/d), JP1 (45 mg/kg/day) and JP1 (150 mg/kg/day) for 14 days. The experiment was ended on 15th day and the animals were euthanasia. The relevant clinical parameters were determined on 7th and 13th day, respectively. The observed parameters were including clinical symptoms, weight, food intake, body temperature, ophthalmology, electrocardiogram, blood routine examination, blood biochemistry, blood coagulation, urinalysis, immunotoxicity.
(§2) Supplementary database files: Cynomolgus monkey toxicity test […]
(§3) The study was conducted by a contract service in Suzhou Xishan Zhongke Drugs Research and Development Co., Ltd. (Xishan, Suzhou, China). All the use of animals were approved by the Institute Animal Care and Use Commttee, IACUC. IACUC no. :
(§4) ID19012912. The veterinarian will supervise the breeding and welfare of the animals. The company follows the Guide for the Care and Use of Laboratory Animals (8th ed., 2011).
(§5) Cynomolgus monkeys (3-4 years old) were randomly divided into three groups (n = 4 per group, two males and two females for each group); and treated q.d./i.v. with Mannitol (75 mg/kg/d in saline), JP1 (45 mg/kg/d) and JP1 (150 mg/kg/d) for 14 days, respectively. JP1 was dissolved in saline (100 mg/2 ml) and administered intravenously at a rate of 3 ml/min.
(§6) The JP1 was provided by Hybio Pharmaceutical Co., Ltd. (Shenzhen, China); the production of small packaging preparation (100 mg/vial in freeze-dried powder, purity > 98%; -20 °C for storage and transportation) was completed under strict GMP conditions and quality control procedures for biological preparations. No recovery period was set for this test; the experimental model was ended on 15th day. The relevant clinical indicators including symptoms, body weight, food intake, temperature, ophthalmology, electrocardiogram, blood routine examination, blood biochemistry, blood coagulation, urinalysis, immunotoxicity were determined on 7th and 13th, respectively. […]
(§7) indicators in all animals, and the pathological observation of organs was not determined. […]
(§8) relevant clinical indicators in two JP1 groups were no difference compared with those in […]
(§9) Level (NOAEL) of JP1 was 150 mg/kg.

[2] = Cynomolgus monkey toxicity test: urinalysis; assay type: in vivo
Procedure: as §1, §2, §3, §4, §5, §6, §7, §8, §9

in vivo = conditions: male, Sprague-Dawley, rat, ip, 100 mg/kg, half-life (t1/2)
Procedure: The drug half-life (t1/2) is calculated by the formula t1/2 = 0.693/k, where k is the elimination rate constant (k = (Inc1-Inc2)/(t2-t1)).

[3] = JP1 45 mg/kg/d i.v., D7, monkeys 1105,1106,2107,2108, 45 mg/kg/day
[4] = JP1 45 mg/kg/d i.v., D13, monkeys 1105,1106,2107,2108, 45 mg/kg/day
[5] = JP1 150 mg/kg/d i.v., D7, monkeys 1209,1210,2211,2212
[6] = JP1 150 mg/kg/d i.v., D7, monkeys 1209,1210,2211,2212, 150 mg/kg/day
[7] = JP1 150 mg/kg/d i.v., D13, monkeys 1209,1210,2211,2212, 150 mg/kg/day
[8] = JP1 45 mg/kg/d i.v., D7, monkeys 1105,1106,2107,2108
[9] = JP1 45 mg/kg/d i.v., D13, monkeys 1105,1106,2107,2108
[10] = JP1 150 mg/kg/d i.v., D13, monkeys 1209,1210,2211,2212

CC(=O)N[C@@H](Cc1ccccc1)C(=O)N1CCC[C@H]1C(=O)NCC(=O)N[C@@H](COP(=O)(O)O)C(=O)N[C@@H](CC(=O)O)C(=O)N[C@@H](CCCNC(=N)N)C(=O)N[C@@H](Cc1ccccc1)C(=O)NCC(=O)NCC(=O)NCC(=O)NCC(=O)N[C@@H](CCCNC(=N)N)C(=O)NCC(=O)N[C@@H](CC(=O)O)C(N)=O [JP1] (Ac-FPG[pS]DRFGGGGRGD-NH2)
body weight curve (B16F10 cell): stable | liver injury (B16F10 cell; compared to DTIC alone): without obvious liver injury | BASO % [1, 3]: 0.1% and 0.0% | EO % [1, 3]: 0.4% and 0.0% and 0.9% and 0.5% | HCT [1, 3]: 34.5% and 36.0% and 39.6% and 37.9% | HGB [1, 3]: 118 g/L and 111 g/L and 119 g/L and 104 g/L | LYMPH % [1, 3]: 17.9% and 15.8% and 30.8% and 26.7% | MCH [1, 3]: 23.1 pg and 24.5 pg and 23.4 pg and 23.2 pg | MCHC [1, 3]: 311 g/L and 308 g/L and 301 g/L | MCV [1, 3]: 79.5 fL and 77.0 fL and 78.0 fL and 74.3 fL | MONO % [1, 3]: 2.6% and 2.2% and 3.8% and 2.0% | NEUT % [1, 3]: 81.6% and 79.8% and 64.5% and 70.2% | NEUT# [1, 3]: 9.22 109/L and 12.27 109/L and 11.67 109/L and 7.64 109/L | PLT [1, 3]: 476 109/L and 539 109/L and 485 109/L and 393 109/L | RBC [1, 3]: 5.10 1012/L and 4.53 1012/L and 5.08 1012/L and 4.48 1012/L | RET% [1, 3]: 0.68% and 2.83% and 1.78% and 2.67% | WBC [1, 3]: 15.04 109/L and 11.55 109/L and 18.07 109/L and 10.87 109/L | BASO % [1, 4]: 0.0% and 0.1% | EO % [1, 4]: 1.2% and 1.9% and 0.3% and 2.5% | HCT [1, 4]: 40.1% and 36.5% and 39.2% and 42.2% | HGB [1, 4]: 121 g/L and 113 g/L and 115 g/L and 127 g/L | LYMPH % [1, 4]: 39.5% and 40.7% and 28.2% and 42.7% | MCH [1, 4]: 25.3 pg and 23.1 pg and 23.9 pg and 23.3 pg | MCHC [1, 4]: 302 g/L and 310 g/L and 293 g/L and 301 g/L | MCV [1, 4]: 83.7 fL and 74.5 fL and 81.5 fL and 77.4 fL | MONO % [1, 4]: 7.1% and 3.5% and 4.4% and 4.8% | NEUT % [1, 4]: 52.2% and 53.8% and 67.0% and 49.9% | PLT [1, 4]: 449 109/L and 489 109/L and 561 109/L and 590 109/L | RBC [1, 4]: 4.79 1012/L and 4.90 1012/L and 4.81 1012/L and 5.45 1012/L | RET% [1, 4]: 3.65% and 0.95% and 3.41% and 1.99% | BASO % [1, 5]: 0.1% | BASO# [1, 5]: 0.01 109/L | EO % [1, 6]: 0.1% and 0.4% and 0.6% | HCT [1, 6]: 37.0% and 38.5% and 37.2% and 34.6% | HGB [1, 6]: 117 g/L and 112 g/L and 110 g/L and 106 g/L | LYMPH# [1, 6]: 3.39 109/L and 3.63 109/L and 4.19 109/L and 2.35 109/L | MCH [1, 6]: 24.4 pg and 23.3 pg and 23.4 pg and 21.8 pg | MCHC [1, 6]: 316 g/L and 291 g/L and 296 g/L and 306 g/L | MCV [1, 6]: 77.2 fL and 80.0 fL and 79.1 fL and 71.2 fL | MONO % [1, 6]: 3.4% and 4.0% and 2.4% | MONO# [1, 6]: 0.53 109/L and 0.65 109/L and 0.50 109/L and 0.39 109/L | NEUT % [1, 6]: 74.4% and 77.1% and 61.7% and 82.9% | NEUT# [1, 6]: 11.48 109/L and 14.75 109/L and 7.71 109/L and 13.42 109/L | PLT [1, 6]: 457 109/L and 540 109/L and 391 109/L and 474 109/L | RBC [1, 6]: 4.79 1012/L and 4.81 1012/L and 4.70 1012/L and 4.86 1012/L | RET# [1, 6]: 44.1 109/L and 70.7 109/L and 81.8 109/L and 74.4 109/L | RET% [1, 6]: 0.92% and 1.47% and 1.74% and 1.53% | WBC [1, 6]: 15.42 109/L and 19.12 109/L and 12.48 109/L and 16.18 109/L | BASO % [1, 7]: 0.1% and 0.0% | EO % [1, 7]: 1.7% and 0.3% and 0.8% and 1.5% | HCT [1, 7]: 38.8% and 38.3% and 37.7% and 36.9% | HGB [1, 7]: 109 g/L and 115 g/L and 121 g/L and 111 g/L | LYMPH % [1, 7]: 30.4% and 27.4% and 43.1% and 40.0% | LYMPH# [1, 7]: 4.07 109/L and 5.06 109/L and 2.56 109/L and 4.46 109/L | MCH [1, 7]: 23.7 pg and 21.4 pg and 24.5 pg and 23.8 pg | MCHC [1, 7]: 295 g/L and 296 g/L and 316 g/L and 294 g/L | MCV [1, 7]: 80.2 fL and 72.3 fL and 77.7 fL and 80.9 fL | MONO % [1, 7]: 6.3% and 6.4% and 4.1% and 7.8% | NEUT % [1, 7]: 65.9% and 52.0% and 50.6% and 61.5% | PLT [1, 7]: 357 109/L and 548 109/L and 451 109/L and 510 109/L | RBC [1, 7]: 4.60 1012/L and 5.37 1012/L and 4.93 1012/L and 4.66 1012/L | RET% [1, 7]: 1.63% and 2.23% and 2.58% and 1.36% | WBC [1, 7]: 9.44 109/L and 12.65 109/L and 8.41 109/L and 16.30 109/L | GLU (urine) [2, 8]: NORMAL | URO (Urobilinogen) [2, 8]: NORMAL | COL (urine) [2, 3]: COLORLESS; also recorded: YELLOW | SG (Urine specific gravity) [2, 3]: 1.004 and 1.005 and 1.008 and 1.012 | pH (urine) [2, 3]: 8.0 and 8.5 | COL (urine) [2, 9]: COLORLESS | GLU (urine) [2, 9]: NORMAL | URO (Urobilinogen) [2, 9]: NORMAL | SG (Urine specific gravity) [2, 4]: 1.006 and 1.007 and 1.009 | pH (urine) [2, 4]: 7.5 and 8.0 and 8.5 | GLU (urine) [2, 5]: NORMAL | URO (Urobilinogen) [2, 5]: NORMAL | COL (urine) [2, 6]: LIGHT YELLOW; also recorded: COLORLESS | SG (Urine specific gravity) [2, 6]: 1.002 and 1.009 and 1.020 and 1.006 | pH (urine) [2, 6]: 7.5 and 8.5 | GLU (urine) [2, 10]: NORMAL | LEU (Urine leukocyte) [2, 10]: NEG. | URO (Urobilinogen) [2, 10]: NORMAL | COL (urine) [2, 7]: COLORLESS; also recorded: LIGHT YELLOW | SG (Urine specific gravity) [2, 7]: 1.004 and 1.013 and 1.005 and 1.009 | pH (urine) [2, 7]: 8.0 and 8.5 and 7.5 | half-life (in vivo): ~1.32 h
